Experimental data: US20150238519A1, “THERAPY FOR DRUG RESISTANT CANCER” (University of Central Florida Research Foundation, Inc., priority 2014, published 2015)

What was measured:
[1] = tested on: LNCaP-104R1 cells; settings: androgen independent LNCaP-104R1; cited from earlier work
[2] = tested on: Frabin (FGD4); experiment: Western blotting of Frabin in extracts of CDX treated LNCaP-104S cells; format: cell-based; settings: western blot
Excerpt: FIG. 2. Expression of FGD4 in untreated LNCap-104R1, LNCaP-104S and LNCaP-104S cells treated with CDX and androgen withdrawal. FIG. 2 A: Western blot of the whole cell extracts. FIG. 2 B: Densitometric analysis of the expression. Data represents the average of 3 separate analyses.
Identification of targets regulated by our candidate miRNAs by MiRDB and TargetScan database search reveled a protein Frabin (FGD4), a GEF that is potentially regulated by mir-17, -21a and -106a and received higher target scores in both searches.

[3] = tested on: mir-17, mir-18a, mir-18b, mir-20a and mir-106a; experiment: Genome-wide miRNA array profiling of LNCaP-104S cells upon CDX treatment; format: cell-based; settings: CDX (5 μM) treatment and androgen blockade (CSFBS), vs untreated LNCaP-104S
Excerpt: We used genome-wide miRNA array (1113 unique primers System Biosciences) profiling approach to dentify specific miRNAs that compensate for androgen ablation. Androgen-dependent (AD) subline of LNCaP cells LNCaP-104S (-104S) and its androgen independent (AI) derivative LNCaP-104R1 (-104R1) were used for monitoring differential expression of miRNAs upon treatment with casodex (CDX). LNCaP-104S cells are CDX-sensitive, whereas LNCaP-104R1 cells are not despite these cells express androgen receptor (AR) at a basal level higher than LNCaP-104S cells. LNCaP-104S cells require DHT for maintaining their AD status but when treated with CDX for 3 weeks in CSFBS (charcoal-stripped FBS), CDX insensitive colonies develop that are independent of androgen (CDXR). We profiled miRNA expression in −104S cells untreated and at 1 wk and 3 wks of treatment with CDX (5 μM) and CSFBS (Table 1). We also compared miRNA expression in untreated −104R1 cells. The ΔΔCT values were obtained for each sample (treatment condition) using LNCaP-104S untreated as the control.

[4] = tested on: LNCaP-104S cells; settings: androgen-dependent LNCaP-104S; cited from earlier work

## CC(O)(CS(=O)(=O)c1ccc(F)cc1)C(=O)Nc1ccc(C#N)c(C(F)(F)F)c1 (stereo not shown) [CDX]
[1]
  CDX sensitivity: are not
[2]
  increase in expression of Frabin: > 2.0 fold
[3]
  down regulation of mir-17, mir-18a, mir-18b, mir-20a and mir-106a: 9-10 fold
[4]
  CDX sensitivity: CDX-sensitive
